Results from patent publication US20080312164A1 (priority 2006, published 2008).
Marks after values point to notes of the source that are not given here.

Experiments:
[1] = tested on: Du145 cells; experiment: Calcein AM cytotoxicity assay, Du145; format: cell-based; details: Homo sapiens, DU-145; Du145, Calcein AM, 72 h; read-out: IC50
Text: (§1) Five serial 1:2 dilutions were made with anhydrous DMSO at 100× the final concentration used in the assay.

[2] = tested on: Du145 cells; experiment: Cell Titer-Glo cytotoxicity assay, Du145; format: cell-based; details: Homo sapiens, DU-145; Du145, Cell Titer-Glo, 72 h; read-out: IC50
Text: as §1

[3] = tested on: HCT-116 cells; experiment: Calcein AM cytotoxicity assay, HCT-116; format: cell-based; details: Homo sapiens; HCT-116, Calcein AM, 72 h; read-out: IC50
Text: as §1

[4] = tested on: HCT-116 cells; experiment: Cell Titer-Glo cytotoxicity assay, HCT-116; format: cell-based; details: Homo sapiens; HCT-116, Cell Titer-Glo, 72 h; read-out: IC50
Text: as §1

[5] = tested on: Hep3B cells; experiment: Calcein AM cytotoxicity assay, Hep3B; format: cell-based; details: Homo sapiens, Calcein AM, 72 h, read-out: IC50
Text: as §1

[6] = tested on: Hep3B cells; experiment: Cell Titer-Glo cytotoxicity assay, Hep3B; format: cell-based; details: Homo sapiens, Cell Titer-Glo, 72 h, read-out: IC50
Text: as §1

[7] = tested on: SF-268 cells; experiment: Calcein AM cytotoxicity assay, SF-268; format: cell-based; details: Homo sapiens; SF-268, Calcein AM, 72 h; read-out: IC50
Text: as §1

[8] = tested on: SF-268 cells; experiment: Cell Titer-Glo cytotoxicity assay, SF-268; format: cell-based; details: Homo sapiens; SF-268, Cell Titer-Glo, 72 h; read-out: IC50
Text: as §1

[9] = tested on: SK-OV-3 cells; experiment: Calcein AM cytotoxicity assay, SK-OV-3; format: cell-based; details: Homo sapiens; SK-OV-3, Calcein AM, 72 h; read-out: IC50
Text: as §1

[10] = tested on: SK-OV-3 cells; experiment: Cell Titer-Glo cytotoxicity assay, SK-OV-3; format: cell-based; details: Homo sapiens; SK-OV-3, Cell Titer-Glo, 72 h; read-out: IC50
Text: as §1

[11] = tested on: NCI/ADR RES cells; experiment: Calcein AM cytotoxicity assay, NCI/ADR-RES; format: cell-based; details: Homo sapiens, Calcein AM, 72 h, read-out: IC50
Text: as §1

[12] = tested on: NCI/ADR RES cells; experiment: Cell Titer-Glo cytotoxicity assay, NCI/ADR-RES; format: cell-based, human; details: for IC50: Homo sapiens, NCI/ADR-RES, Cell Titer-Glo, 72 h, read-out: IC50
Text: as §1

[13] = tested on: NCI-H460 cells; experiment: Calcein AM cytotoxicity assay, NCI-H460; format: cell-based; details: Homo sapiens; NCI-H460, Calcein AM, 72 h; read-out: IC50
Text: as §1

[14] = tested on: NCI-H460 cells; experiment: Cell Titer-Glo cytotoxicity assay, NCI-H460; format: cell-based, human; details: for IC50: Homo sapiens, NCI-H460, Cell Titer-Glo, 72 h, read-out: IC50
Text: as §1

[15] = tested on: MCF7 cells; experiment: Calcein AM cytotoxicity assay, MCF7; format: cell-based; details: Homo sapiens; MCF7, Calcein AM, 72 h; read-out: IC50
Text: as §1

[16] = tested on: MCF7 cells; experiment: Cell Titer-Glo cytotoxicity assay, MCF7; format: cell-based, human; details: for IC50: Homo sapiens, MCF7, Cell Titer-Glo, 72 h, read-out: IC50
Text: as §1

[17] = tested on: NmuMG mouse mammary normal epithelial cells; experiment: Calcein AM cytotoxicity assay, NmuMG; format: cell-based; details: Epithelial cell, NmuMG, Calcein AM, 72 h, read-out: IC50
Text: as §1

[18] = tested on: NmuMG mouse mammary normal epithelial cells; experiment: Cell Titer-Glo cytotoxicity assay, NmuMG; format: cell-based; details: Mus musculus, Epithelial cell; NmuMG, Cell Titer-Glo, 72 h; read-out: IC50
Text: as §1

[19] = tested on: HT-29 cells; experiment: MTT cytotoxicity assay, HT-29; format: cell-based; details: Homo sapiens; HT-29, MTT, 24 h; read-out: IC50
[20] = tested on: human cancer cell lines; experiment: Cytotoxicity across the panel of human cancer cell lines (average, high-throughput assays); format: cell-based; details: average across eight human cancer cell lines, MTT (HT-29) values excluded; for IC50: read-out: Cancerous Average IC50 / Average IC50 in Cancer Cell Lines
Text: as §1

Compound	IC50 [1]	IC50 [2]	IC50 [3]	IC50 [4]	IC50 [5]	IC50 [6]	IC50 [7]	IC50 [8]	IC50 [9]	IC50 [10]	IC50 [11]	IC50 [12]	IC50 [13]	IC50 [14]	IC50 [15]	IC50 [16]	IC50 [17]	IC50 [18]	IC50 [19]	IC50 [20]	further results
S=C=NCc1ccccc1Br [Compound 25, 1-bromo-2-(isothiocyanatomethyl)benzene]	3.99 µM	8.64 µM	19.6 µM	3.88 µM	5.67 µM	16.3 µM	6 µM	7.11 µM	6.32 µM	5.01 µM	> 20 µM	20.1 µM	19.4 µM	17.3 µM	6.76 µM	2.73 µM	11.3 µM	4.6 µM	26.9 µM	10.1 µM	–
S=C=NCc1ccc2c(c1)OCO2 [Compound 29, 5-(isothiocyanatomethyl)benzo[d][1,3]dioxole]	2.18 µM	6.24 µM	> 20 µM	4.77 µM	3.9 µM	4.3 µM	2.55 µM	3.92 µM	2.79 µM	4.44 µM	6.39 µM	9.77 µM	9.59 µM	11.5 µM	3.15 µM	2.51 µM	< 12.5 µM	17 µM	30.3 µM	5.77 µM	–
S=C=NCC1CCCCC1 [Compound 18, (isothiocyanatomethyl)cyclohexane]	18.7 µM	24.4 µM	21.9 µM	20.9 µM	42.1 µM	29.3 µM	15.1 µM	15.4 µM	29.1 µM	33.7 µM	> 50 µM	> 50 µM	48.1 µM	> 50 µM	> 30 µM	33.3 µM	22.5 µM	14.8 µM	> 50 µM	29.3 µM	Cancerous Average IC50 / Average IC50 in Cancer Cell Lines [20]: 29.31^d μM
S=C=NCCc1ccccc1 [Compound 38, 1-(2-isothiocyanatoethyl)benzene]	43.1 µM	10.9 µM	12.7 µM	10.3 µM	46.2 µM	11.1 µM	8.66 µM	7.2 µM	16.7 µM	13.5 µM	10.5 µM	12.1 µM	12.1 µM	13.7 µM	23.7 µM	13.1 µM	< 12.5 µM	17.7 µM	33.2 µM	11.5 µM	–
C[S@+]([O-])CCCCN=C=S [D-sulforaphane]	–	–	–	–	–	–	–	–	–	–	–	–	–	–	–	–	–	–	–	–	% bioactive (relative to L-sulforaphane) ([12]; NCI/ADR RES, inferred from racemate 13 versus 2): 9%; % bioactive (relative to L-sulforaphane) ([14]; NCI-H460, inferred from racemate 13 versus 2): 14%; % bioactive (relative to L-sulforaphane) ([16]; MCF7, inferred from racemate 13 versus 2): 0%
COc1cccc(CN=C=S)c1OC [Compound 27]	2.46 µM	8.24 µM	< 1.88 µM	6.72 µM	1.37 µM	4.87 µM	4.26 µM	3.21 µM	2.55 µM	5.47 µM	5.61 µM	20.8 µM	15.8 µM	16.1 µM	5.81 µM	3.22 µM	5.59 µM	3.78 µM	–	–	–
